Measurements reported in patent publication US6184217A (Cephalon, Inc., priority 1997, dated 2001).

How the values were obtained:
[1] = test system: cholinergic neurons, striatal neurons, and sensory neurons; settings: cited from earlier work
protein kinase C = assay: Protein kinase C inhibition in vitro; format: biochemical
LPS-induced death = assay: Prevention of LPS-induced death in mice; format: in vivo; settings: 30 mg/kg ip 2 h before LPS (2 mg/mouse)
Description: Forty mice were divided into three groups, two groups consisting of ten mice and one group of twenty mice. Administrations of vehicles, LPS, and Compound A were intraperitoneal. Group 1 (n=10) mice received vehicle (phosphate buffered saline for LPS, 200 μl/mouse) at time zero and vehicle for Compound A (200 μl/mouse) 2 hours later. Group 2 (n=10) mice received the vehicle for Compound A at zero time (200 μl/mouse) and LPS (2 mg in 200 μl/mouse) for two hours later. Group 3 (n=20) received Compound A (30 mg/kg in 200 μl of vehicle) at time zero and LPS (2 mg in 200 μl/mouse) two hours later.

[2] = test system: nucleus basalis magnocellularis; assay: T-maze rewarded alternation task after bilateral nbm lesion; format: in vivo, Sprague-Dawley rats; settings: 0.1 mg/kg s.c. every other day until 12 days post-lesion; tested 10-12 weeks later
Description: Adult male Sprague-Dawley rats were first trained to alternate responses in a standard rewarded-alternation T-maze task (Hepler et al., J. Neurosci., 5:866-873, 1985). The animals then received bilateral lesions of the nucleus basalis magnocellularis, to impair performance in T-maze tasks (e.g., Salamone et al., Behav. Brain Res., 13:63-70, 1984). Beginning 18 hours after the lesion, the animals received Compound A via subcutaneous injection (0.1 mg/kg) every other day until 12 days post-lesion. Twenty-four hours following the last injection all animals were placed in the T-maze once a day, until their alternation performance reached pre-operative levels, which took anywhere from 3 to 10 days. After reaching criterion, the animals were not further tested for 8-10 weeks. At that point the animals were again placed in the T-maze, once a day until they reached pre-operative performance.

[3] = test system: uptake of catecholamines into nerve endings; assay: Uptake of catecholamines into nerve endings; format: biochemical
TNF-α = assay: LPS-induced TNF-α in the serum of mice; format: in vivo, C57BL mice; settings: 30 mg/kg ip 2 h before LPS
Description: Sixty female C57BL mice (4-6 weeks old) were divided into six groups, each with 10 animals. Three groups (1,3,5) received vehicle only (PBS containing 0.1% TEA (tetraethyl ammonium hydrochloride)), 200 μl/mouse via intraperitoneal (ip) administration. The other three groups (2,4,6) received Compound A (30 mg/kg in 200 μl, ip) of vehicle (PBS containing 10% of the ethyl ester of 12-hydroxystearic acid; solutol). Two hours later, the animals received by ip administration, 0.1 mg/kg of LPS (groups 1 & 2), 0.5 mg/kg of LPS (groups 3 & 4), and 1.0 mg/kg of LPS (groups 5 % 6). Two hours after LPS administration, all of the animals were sacrificed, and plasma samples were obtained and assayed for their […] and IL-1β content. Assays were carried out as described in Example 8.
The numbers in are the group numbers as described above. N indicates the number of animals from which plasma measurements where made. ND=not done.

[4] = test system: striatal tyrosine hydroxylase (dopaminergic neurons); assay: Striatal tyrosine hydroxylase activity in low-dose MPTP-treated mice; format: in vivo, C57 black mice; settings: MPTP 20 mg/kg, 7 days
Description: Experiments were conducted using Compound A in MPTP-lesioned dopaminergic neurons in mice (MPTP mouse model). A single s.c. dose of MPTP (20 mg/kg) provided to C57 black mice produced approximately 60% loss of striatal tyrosine hydroxylase activity. Administration of Compound A, at daily doses ranging from 0.01 to 10 mg/kg (s.c.), to such MPTP-treated mice reduced the loss of striatal tyrosine hydroxylase activity.
Mice were treated with MPTP (20 mg/kg; s.c.) 4-6 hours after the first Compound A injection. Compound A was then injected every day until the end of the experiment, which was 7 days in duration. Striata were assessed for tyrosine hydroxylase enzyme activity. Asterisk indicates statistically significant difference (p<0.05) from MPTP-Vehicle treated animals.

[5] = test system: IL-1β production (THP-1 cells); assay: Inhibition of LPS-induced IL-1β production in THP-1 cells; format: cell-based; settings: Homo sapiens, LPS 2 ug/ml
Description: Stock solutions consisting of 4 mM Compound A, in 100% DMSO, were stored at 4° C. Cell culture medium RPMI 1640 (Media Tech, Herndon, Va.) and fetal bovine serum (Hyclone, Logan, Utah) comprised the test medium. Lipopolysaccharide (LPS) (Sigma, St. Louis, Mo.) from E. coli serotype 0.111:B4, extracted with trichloroacetic acid, was used. Stock solutions of LPS were prepared and stored at 4° C. in phosphate-buffered saline (PBS). ELISA kits for assaying tumor necrosis factor alpha (TNF-α) and IL-1β were purchased from Boehringer-Mannheim, (Indianapolis, Ind.) and were used according to the manufacturer's instructions. THP-1 cells, a human monocyte-derived cell line, was obtained from the American Type Culture Collection (ATCC TIB 202). Cells were grown in RPMI 1640 containing 10% fetal bovine serum (medium) in a humidified atmosphere of 5% CO2 :95% air at 37° C. Experiments were performed in 24 well culture plates (Nunc) with 5×10^5 THP-1 cells in 1 ml of medium. Cells were incubated with LPS at 2 ug/ml to induce TNF-α. After a 3-hr incubation period, the cells and medium were centrifuged at 1,000×g for 5 min, and the resulting supernatant fluid was either assayed immediately for TNF-α or stored at -70° C. and assayed later. Media samples were measured for content of TNF-α and IL-1β by Elisa assays. […]

Structure (SMILES): CCSCc1ccc2c(c1)c1c3c(c4c5cc(CSCC)ccc5n5c4c1n2C1CC(O)(C(=O)OC)C5(C)O1)CNC3=O (stereo not shown) [Compound A]
- function of cholinergic neurons, striatal neurons, and sensory neurons [1]: enhance the function of cholinergic neurons, striatal neurons, and sensory neurons
- protein kinase C inhibition at concentrations inhibiting TNF-α and IL-1β production (protein kinase C; at 139 nM and 261 nM): inactive
- fold less active than K-252a against protein kinase C (protein kinase C; compared with K-252a): 570 fold
- IC50 (protein kinase C; in vitro): 16 µM
- inhibitory activity against PKC (protein kinase C; summary statement): little or no inhibitory activity against PKC
- mortality one week after LPS (LPS-induced death): 80%
- mortality at 20 hours after LPS (LPS-induced death; LPS alone 90% within 20 hours): 25%
- mortality at 42 hours after LPS (LPS-induced death; LPS alone 100% by 42 hours): 75%
- total number of errors in T-maze task compared to normals [2]: not different from normals
- block of uptake of catecholamines into nerve endings [3]: found not to inhibit monoamine oxidase A or B in vitro (FIGS. 1 and 2) or block uptake of catecholamines into nerve endings
- TNF-α (TNF-α; LPS dose 0.1 ip, vehicle 6129 ± 676, N = 10): 2714 ± 449 pg/mL
- TNF-α (TNF-α; LPS dose 0.5 ip, vehicle 7141 ± 1113, N = 7): 3766 ± 375 pg/mL
- TNF-α (TNF-α; LPS dose 1.0 ip, vehicle 3745 ± 610, N = 9): 2399 ± 1399 pg/mL
- % of Unlesioned Control ([4]; 0.01 mg/kg s.c. daily): 41 ± 5.3%
- Striatal TH Activity (± SEM) ([4]; 0.01 mg/kg s.c. daily): 7.76 ± 1.23
- % of Unlesioned Control ([4]; 0.03 mg/kg s.c. daily): 55 ± 3.9%
- Striatal TH Activity (± SEM) ([4]; 0.03 mg/kg s.c. daily): 10.48 ± 0.92
- % of Unlesioned Control ([4]; 0.10 mg/kg s.c. daily): 60 ± 6.5%
- Striatal TH Activity (± SEM) ([4]; 0.10 mg/kg s.c. daily): 11.51 ± 0.80
- % of Unlesioned Control ([4]; 0.30 mg/kg s.c. daily): 62 ± 5.0%
- Striatal TH Activity (± SEM) ([4]; 0.30 mg/kg s.c. daily): 11.89 ± 1.34
- % of Unlesioned Control ([4]; 1.0 mg/kg s.c. daily): 54 ± 7.0%
- Striatal TH Activity (± SEM) ([4]; 1.0 mg/kg s.c. daily): 10.39 ± 1.39
- % of Unlesioned Control ([4]; 3.0 mg/kg s.c. daily): 51 ± 5.8%
- Striatal TH Activity (± SEM) ([4]; 3.0 mg/kg s.c. daily): 9.66 ± 1.10
- % of Unlesioned Control ([4]; 10.0 mg/kg s.c. daily): 51 ± 3.7%
- Striatal TH Activity (± SEM) ([4]; 10.0 mg/kg s.c. daily): 9.77 ± 0.70
- IC50 [5]: 0.261 µM
